Test system: oedème généralisé au dextran
Assay: generalized dextran oedema test (anti-inflammatory activity, oral, rat)
Assay type: in vivo

CCC(C)CCCCCCCCCC(=O)O (centres unmarked) [acide antéisomyristique, acide méthyl-11 tridécanoique] was tested, and the “activité anti-inflammatoire (même type)” value (administration par voie orale chez le rat, concentration and vehicle not stated) was “Le même type d'activité anti-inflammatoire a été mis en évidence”.

With CC(C)CCCCCCCCCCC(=O)O [acide isomyristique, acide méthyl-12 tridécanoTque] the “propriétés anti-inflammatoires (test de l'oedème généralisé au dextran)” value (solution à 1 % dans l'huile d'arachide, voie orale chez le rat, by action on the vascular phase and decrease of platelet aggregation) was “propriétés anti-inflammatoires marquées”.

— patent EP0153203A1, “C10-C20-Branched-chain fatty acids useful as medicaments and the preparation thereof” (PIERRE FABRE MEDICAMENT, priority 1984, dated 1985)
